# Experimental data: ChEMBL document CHEMBL5046315, “CRCM5484: A BET-BDII Selective Compound with Differential Anti-leukemic Drug Modulation” (J Med Chem, 2022)
# The source made the active and inactive calls. No cut-off for these calls is given here.
# Columns and labels:
# Type in all cases: functional, cell-based
# K562 [1] = assay: Cytotoxicity against human K562 cells assessed as reduction in cell viability incubated for 72 hrs; conditions: K562, 72 h
# K562 [2] = assay: Inhibition of IFNgamma induced MHC-1 expression in human K562 cells treated for 48 hrs by flow cytometric analysis; conditions: dose 0.2-20 µM
# [3] = system: Acute myeloid leukemic cell; assay: Potentiation of birinapant-induced antileukemic activity against patient derived mouse xenografted acute myeloid leukemic cells assessed as cell viability in absence of bone-marrow derived stromal cell-conditioned medium measured after 72 to 144 hrs by cell-titre glo luminescent assay; conditions: Homo sapiens, dose microM <=10, time lower […], time upper 144.0 hrs
# CCRF-CEM [4] = assay: Potentiation of 17AAG-induced antileukemic activity against human CCRF-CEM cells at 4.3 uM in presence of bone-marrow derived stromal cell-conditioned medium
# CCRF-CEM [5] = assay: Potentiation of AC-4-130-induced antileukemic activity against human CCRF-CEM cells at 4.3 uM in presence of bone-marrow derived stromal cell-conditioned medium
# CCRF-CEM [6] = assay: Potentiation of AraC-induced antileukemic activity against human CCRF-CEM cells at 4.3 uM in presence of bone-marrow derived stromal cell-conditioned medium
# CCRF-CEM [7] = assay: Potentiation of azacitidine-induced antileukemic activity against human CCRF-CEM cells at 4.3 uM in presence of bone-marrow derived stromal cell-conditioned medium
# CCRF-CEM [8] = assay: Potentiation of bleomycine-induced antileukemic activity against human CCRF-CEM cells at 4.3 uM in presence of bone-marrow derived stromal cell-conditioned medium
# CCRF-CEM [9] = assay: Potentiation of EPZ5676-induced antileukemic activity against human CCRF-CEM cells at 4.3 uM in presence of bone-marrow derived stromal cell-conditioned medium
# CCRF-CEM [10] = assay: Potentiation of hydroxychloroquine-induced antileukemic activity against human CCRF-CEM cells at 4.3 uM in presence of bone-marrow derived stromal cell-conditioned medium
# CCRF-CEM [11] = assay: Potentiation of idarubicin-induced antileukemic activity against human CCRF-CEM cells at 4.3 uM in presence of bone-marrow derived stromal cell-conditioned medium
# CCRF-CEM [12] = assay: Potentiation of metformin -induced antileukemic activity against human CCRF-CEM cells at 4.3 uM in presence of bone-marrow derived stromal cell-conditioned medium
# CCRF-CEM [13] = assay: Potentiation of MK2206-induced antileukemic activity against human CCRF-CEM cells at 4.3 uM in presence of bone-marrow derived stromal cell-conditioned medium
# CCRF-CEM [14] = assay: Potentiation of olaparid-induced antileukemic activity against human CCRF-CEM cells at 4.3 uM in presence of bone-marrow derived stromal cell-conditioned medium
# CCRF-CEM [15] = assay: Potentiation of tipifarnib-induced antileukemic activity against human CCRF-CEM cells at 4.3 uM in presence of bone-marrow derived stromal cell-conditioned medium
# CCRF-CEM [16] = assay: Potentiation of volasertib-induced antileukemic activity against human CCRF-CEM cells at 4.3 uM in presence of bone-marrow derived stromal cell-conditioned medium
# U-937 [17] = assay: Potentiation of AC-4-130-induced antileukemic activity against human U-937 cells at 4.3 uM in presence of bone-marrow derived stromal cell-conditioned medium
# U-937 [18] = assay: Potentiation of afatinib-induced antileukemic activity against human U-937 cells at 4.3 uM in presence of bone-marrow derived stromal cell-conditioned medium
# U-937 [19] = assay: Potentiation of AT9283-induced antileukemic activity against human U-937 cells at 4.3 uM in presence of bone-marrow derived stromal cell-conditioned medium
# U-937 [20] = assay: Potentiation of azacitidine-induced antileukemic activity against human U-937 at 4.3 uM in presence of bone-marrow derived stromal cell-conditioned medium
# U-937 [21] = assay: Potentiation of bleomycine-induced antileukemic activity against human U-937 cells at 4.3 uM in presence of bone-marrow derived stromal cell-conditioned medium
# U-937 [22] = assay: Potentiation of daunorubicine-induced antileukemic activity against human U-937 cells at 4.3 uM in presence of bone-marrow derived stromal cell-conditioned medium
# U-937 [23] = assay: Potentiation of dexamethasone-induced antileukemic activity against human U-937 cells at 4.3 uM in presence of bone-marrow derived stromal cell-conditioned medium
# U-937 [24] = assay: Potentiation of entinostat-induced antileukemic activity against human U-937 cells at 4.3 uM in presence of bone-marrow derived stromal cell-conditioned medium
# U-937 [25] = assay: Potentiation of gefitinib-induced antileukemic activity against human U-937 cells at 4.3 uM in presence of bone-marrow derived stromal cell-conditioned medium
# U-937 [26] = assay: Potentiation of hydroxychloroquine-induced antileukemic activity against human U-937 cells at 4.3 uM in presence of bone-marrow derived stromal cell-conditioned medium
# U-937 [27] = assay: Potentiation of ponatinib-induced antileukemic activity against human U-937 cells at 4.3 uM in presence of bone-marrow derived stromal cell-conditioned medium
# U-937 [28] = assay: Potentiation of seliciclib-induced antileukemic activity against human U-937 cells at 4.3 uM in presence of bone-marrow derived stromal cell-conditioned medium
# U-937 [29] = assay: Potentiation of topotecan-induced antileukemic activity against human U-937 cells at 4.3 uM in presence of bone-marrow derived stromal cell-conditioned medium
# U-937 [30] = assay: Potentiation of venetoclax-induced antileukemic activity against human U-937 cells at 4.3 uM in presence of bone-marrow derived stromal cell-conditioned medium
# MOLM-14 [31] = assay: Potentiation of birinapant-induced antileukemic activity against human MOLM-14 cells at 4.3 uM in presence of bone-marrow derived stromal cell-conditioned medium
# MOLM-14 [32] = assay: Potentiation of crenolatinib-induced antileukemic activity against human MOLM-14 cells at 4.3 uM in presence of bone-marrow derived stromal cell-conditioned medium
# MOLM-14 [33] = assay: Potentiation of etoposide-induced antileukemic activity against human MOLM-14 cells at 4.3 uM in presence of bone-marrow derived stromal cell-conditioned medium
# MOLM-14 [34] = assay: Potentiation of gefitinib-induced antileukemic activity against human MOLM-14 cells at 4.3 uM in presence of bone-marrow derived stromal cell-conditioned medium
# MOLM-14 [35] = assay: Potentiation of GSK2879552-induced antileukemic activity against human MOLM-14 cells at 4.3 uM in presence of bone-marrow derived stromal cell-conditioned medium
# MOLM-14 [36] = assay: Potentiation of JQ1-induced antileukemic activity against human MOLM-14 cells at 4.3 uM in presence of bone-marrow derived stromal cell-conditioned medium
# MOLM-14 [37] = assay: Potentiation of metformin -induced antileukemic activity against human MOLM-14 cells at 4.3 uM in presence of bone-marrow derived stromal cell-conditioned medium
# MOLM-14 [38] = assay: Potentiation of SGI-1776-induced antileukemic activity against human MOLM-14 cells at 4.3 uM in presence of bone-marrow derived stromal cell-conditioned medium
# MOLM-14 [39] = assay: Potentiation of sorafenib-induced antileukemic activity against human MOLM-14 cells at 4.3 uM in presence of bone-marrow derived stromal cell-conditioned medium
# MOLM-14 [40] = assay: Potentiation of tipifarnib-induced antileukemic activity against human MOLM-14 cells at 4.3 uM in presence of bone-marrow derived stromal cell-conditioned medium
# MOLM-14 [41] = assay: Potentiation of tretinoin-induced antileukemic activity against human MOLM-14 cells at 4.3 uM in presence of bone-marrow derived stromal cell-conditioned medium
smiles,measurement,setting,value
CC(=O)N1CCc2c(sc3nc(SCC(=O)Nc4cccnc4C)n(Cc4ccco4)c(=O)c23)C1,EC50,K562 [1],> 5 µM
same,Activity,K562 [2],Dose-Dependent Effect
same,Activity,[3],Dose-Dependent Effect
same,Activity,CCRF-CEM [4],inactive
same,Activity,CCRF-CEM [5],inactive
same,Activity,CCRF-CEM [6],inactive
same,Activity,CCRF-CEM [7],inactive
same,Activity,CCRF-CEM [8],inactive
same,Activity,CCRF-CEM [9],inactive
same,Activity,CCRF-CEM [10],inactive
same,Activity,CCRF-CEM [11],inactive
same,Activity,CCRF-CEM [12],inactive
same,Activity,CCRF-CEM [13],inactive
same,Activity,CCRF-CEM [14],inactive
same,Activity,CCRF-CEM [15],inactive
same,Activity,CCRF-CEM [16],inactive
same,Activity,U-937 [17],inactive
same,Activity,U-937 [18],inactive
same,Activity,U-937 [19],inactive
same,Activity,U-937 [20],inactive
same,Activity,U-937 [21],inactive
same,Activity,U-937 [22],inactive
same,Activity,U-937 [23],inactive
same,Activity,U-937 [24],inactive
same,Activity,U-937 [25],inactive
same,Activity,U-937 [26],inactive
same,Activity,U-937 [27],inactive
same,Activity,U-937 [28],inactive
same,Activity,U-937 [29],inactive
same,Activity,U-937 [30],inactive
same,Activity,MOLM-14 [31],inactive
same,Activity,MOLM-14 [32],inactive
same,Activity,MOLM-14 [33],inactive
same,Activity,MOLM-14 [34],inactive
same,Activity,MOLM-14 [35],inactive
same,Activity,MOLM-14 [36],inactive
same,Activity,MOLM-14 [37],inactive
same,Activity,MOLM-14 [38],inactive
same,Activity,MOLM-14 [39],inactive
same,Activity,MOLM-14 [40],inactive
same,Activity,MOLM-14 [41],inactive
